Results: US20100310553A1, “Compositions and Methods for Controlling Hepatitis C Virus Infection” (priority 2006, published 2010)

Experiments:
[1] = system: apoB and triglyceride secretion; details: HepG2 cells; cited from earlier work
[2] = system: subgenomic HCV replicon of genotype 2a; experiment: HCV RNA replication in Huh7.5 cells harboring a subgenomic HCV replicon of genotype 2a; assay type: cell-based, Hepatitis C virus; details: subgenomic replicon genotype 2a, RPA
HCV [3] = experiment: HCV production: infectivity of media of CP-346086-treated, HCV-infected Huh7.5 cells on naive Huh7.5 cells; assay type: cell-based, Hepatitis C virus
Description: (§1) With reference to FIGS. 14A-14F, studies were carried out to determine the effects of an MTP inhibitor, CP-346086, on lipoprotein production/secretion and HCV production. […] To determine the effect of CP-346086 on HCV production, Huh7.5 cells were infected with HCV at 37° C. for 2 hr and then incubated with varying concentrations of CP-346086 for 4 days. The levels of apoB and apoE in the media were determined by Western blotting. […] The levels of HCV virions released into the media were initially determined by infectivity assay in cell culture. The naïve Huh7.5 cells were infected with HCV-containing media. At 3 days p.i., the levels of HCV NS3 protein and positive-stranded RNA were quantified by Western blotting and RPA, respectively. […] Similarly, CP-346086 lowered the infectious HCV titers by 1, 2, 3, and 4 orders of magnitude (10, 100, 1,000, and 10,000 times) at concentrations of 6.25, 12.5, 25, and 50 μM, respectively, as illustrated in FIG. 14E.

apoE = apoE in media of HCV-infected Huh7.5 cells treated with inhibitor, Western blotting; assay type: cell-based; details: 4 days
Description: as §1

apoB = apoB in media of HCV-infected Huh7.5 cells treated with inhibitor, Western blotting; assay type: cell-based; details: 1 μM; 4 days
Description: as §1

HCV [4] = experiment: HCV production after treatment of HCV-infected cells with commercial inhibitors of lipoprotein assembly and secretion, RPA; assay type: cell-based, Hepatitis C virus; details: increasing concentrations; positive-strand HCV RNA by RPA, 3 days p.i.
Description: These inhibitors were used to treat HCV-infected cells. The culture supernatants were then used to infect naïve Huh7.5 cells. At 3 days p.i., the levels of positive-strand HCV RNA were determined by RPA.

HCV [5] = experiment: HCV infection of Huh7.5 cells in the presence of apoE3 or apoC-I protein; assay type: cell-based, Hepatitis C virus; details: increasing concentrations (μg/ml); RPA
Description: With reference to FIGS. 16A and 16B, the effect of recombinant apolipoprotein E3 (apoE3) and purified apoC-I on HCV infection was investigated. Huh7.5 cells were infected with HCV in the presence of increasing concentrations (μg/ml) of apoE3 or apoC-I, as indicated on the top of the figures. At 3-hr p.i., the HCV-infected cells were washed with 1×PBS twice and were incubated with medium for 3 days. With reference to FIG. 16A, the levels of HCV NS3 protein in the cells infected with HCV in the presence of apoE3 were then determined by Western blot analysis using an NS3-specific monoclonal antibody and a cellular beta-actin protein as an internal control. With reference to FIG. 16B, HCV positive-strand RNA in the cells infected with HCV in the presence of apoC-I were quantified by RPA.

O=C(Nc1ccc2c(c1)CCN(Cc1ncn[nH]1)C2)c1ccccc1-c1ccc(C(F)(F)F)cc1 [CP-346086]
IC50 [1]: 2.6 nM
HCV RNA replication [2]: no significant effect
lowering of infectious HCV titers (HCV [3]; 6.25 μM): 10 times
lowering of infectious HCV titers (HCV [3]; 12.5 μM): 100 times
lowering of infectious HCV titers (HCV [3]; 25 μM): 1,000 times
lowering of infectious HCV titers (HCV [3]; 50 μM): 10,000 times
reduction of HCV positive-stranded RNA level (HCV [3]; 50 μM, 3 days p.i., RPA): > 95%
reduction of HCV NS3 protein level (HCV [3]; 50 μM, 3 days p.i., Western blotting): > 95%
concentration up to which apoE secretion was not reduced (apoE): above 3 μM
apoB secretion (apoB): almost completely blocked

COc1ccc(Cl)cc1C(=O)NCCc1ccc(S(=O)(=O)NC(=O)NC2CCCCC2)cc1 [glybenclamide]
levels of HCV virion production (HCV [4]): significantly decreased

COc1ccc([C@@H]2CC(=O)c3c(O)cc(O)cc3O2)cc1O [hesperetin]
levels of HCV virion production (HCV [4]): significantly decreased

O=c1c(O)c(-c2ccc(O)c(O)c2)oc2cc(O)cc(O)c12 [quercetin]
levels of HCV virion production (HCV [4]): significantly decreased

ApoC-I: purified apoC-I protein (TPDVSSALDKLKEFGNTLEDKARELISRIKQSELSAKMREWFSETFQKVKEKLKIDS; UniProt P02654 27-83, looked up)
inhibition of HCV infection (HCV positive-strand RNA) (HCV [5]): inhibited HCV infection in a dose-dependent manner
